Data taken from paper PMC9967275, “Screening the Pathogen Box to Discover and Characterize New Cruzain and TbrCatL Inhibitors” (Pathogens, 2023).
Entries after “also recorded” stand apart in the source; their conditions may differ. Where two headings read alike, the source gives them in different places.

Key:
cruzain [1] = molecular target: T1, cruzain (Trypanosoma cruzi, UniProt P25779); test: biochemical
Procedure, shortened: (§1)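 Recombinant enzymes assayed by Z-Phe-Arg-AMC cleavage at 25 °C, fluorescence 340/440 nm over 5–7 min, with 10 min or no enzyme–compound preincubation.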

TbrCatL = molecular target: T2, TbrCatL (Trypanosoma brucei rhodesiense, UniProt Q95PM0); test: TbrCatL enzymatic inhibition assay (cleavage of fluorogenic substrate Z-FR-AMC); assay type: biochemical
T2 construct: Conor Caffrey (University of California San Diego)
T2 sequence (Q95PM0 entry or part of it): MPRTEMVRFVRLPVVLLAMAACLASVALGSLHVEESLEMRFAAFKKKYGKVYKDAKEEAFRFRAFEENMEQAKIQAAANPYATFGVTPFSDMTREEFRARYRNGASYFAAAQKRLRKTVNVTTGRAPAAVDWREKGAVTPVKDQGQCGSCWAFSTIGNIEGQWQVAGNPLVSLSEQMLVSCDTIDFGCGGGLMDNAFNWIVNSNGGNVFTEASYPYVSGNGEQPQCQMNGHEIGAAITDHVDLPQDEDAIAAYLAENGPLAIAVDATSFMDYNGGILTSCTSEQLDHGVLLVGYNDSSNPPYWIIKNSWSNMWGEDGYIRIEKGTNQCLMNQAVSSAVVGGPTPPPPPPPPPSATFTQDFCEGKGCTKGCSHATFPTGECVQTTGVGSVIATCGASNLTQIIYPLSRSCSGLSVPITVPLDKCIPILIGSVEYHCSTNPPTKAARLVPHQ
Procedure, shortened: as §1

cruzain [2] = molecular target: T1, cruzain; test: Aggregation counter-assays: cruzain inhibition at varying Triton X-100 and after pre-incubation with BSA; assay type: biochemical; set-up: Cruzain is the truncated, recombinant-expressed cruzipain 1; Brian Shoichet (University of California San Francisco); details: for % Cruzain Inhibition (Mean ± SEM) 0.001% Triton + BSA 1 mg/mL / % Cruzain Inhibition (Mean ± SEM) 0.001% Triton X-100 / % Cruzain Inhibition (Mean ± SEM) 0.01% Triton X-100 / % Cruzain Inhibition (Mean ± SEM) 0.1% Triton X-100: compound µM: MMV687246 12.5, MMV687812 3.125, MMV688179 1.563, MMV688362 3.125, MMV688466 6.25, MMV690028 25
Method: To assess the effects of the Triton X-100 concentration on cruzain inhibition, assays were performed using 0.001%, 0.01%, and 0.1% Triton X-100. To evaluate the impact of pre-incubation with bovine serum albumin (BSA), 50 µL of a solution of the compound in the assay buffer containing 0.001% of Triton X-100 was incubated with 4 mg/mL of BSA (Sigma-Aldrich) for 10′ in a 96-well plate. Next, 50 µL of a solution containing circa 2 nM of cruzain in the same buffer was added to each well and incubated for another 10′. Finally, 100 µL of a solution of 5 µM Z-FR-AMC in the same buffer was added to each well and the fluorescence was immediately read. The final compound concentration varies and was selected to be near the compound IC50.
To investigate if inhibition was due to colloidal aggregation, a common cause of unspecific enzyme inhibition in in vitro assays, we employed two well-established experiments: the comparison of percentages of inhibition at varying Triton X-100 concentrations and the effect of compound pre-incubation with BSA on the percentage of inhibition. […] Pre-incubating a compound that aggregates with BSA saturates the protein-binding capacity of the aggregate.

cruzain [3] = molecular target: T1, cruzain; test: Mechanism of inhibition against cruzain (Michaelis-Menten, Lineweaver-Burk); assay type: biochemical; set-up: Cruzain is the truncated, recombinant-expressed cruzipain 1; Brian Shoichet (University of California San Francisco)
Method: Non-linear regression to Michaelis-Menten models and linear regression for the Lineweaver-Burk plot were performed. Ki was estimated by both methods. The effect of the inhibitor concentration on the Km app was evaluated using the General Linear F-test.

T. cruzi = details: cited from earlier work
DNA minor groove = system: DNA minor groove; set-up: method as in PMID 18247550, PMID 22497334; details: SPR, ITC, CD, and Tm experiments; cited from earlier work
SARS-CoV-2 MPro = system: SARS-CoV-2 MPro; set-up: method as in PMID 33655614; details: read-out: IC50 against MPro; cited from earlier work
ferrochelatase = system: ferrochelatase; set-up: method as in earlier work; details: cited from earlier work
[4] = system: porphobilinogen deaminase; set-up: method as in earlier work; details: cited from earlier work
[5] = set-up: method as in earlier work; details: cited from earlier work
[6] = IC50 (µM ± SEM %) Cruzain 0′, no pre-incubation
[7] = IC50 (µM ± SEM %) Cruzain 10′ inc, 10′ pre-incubation
[8] = read-out: Cruzain 0’ Inhibition, 0’ (pre-incubation time), sheet "Screening results"
[9] = read-out: Cruzain 10’ Inhibition, 10’ (pre-incubation time), sheet "Screening results"
[10] = read-out: Inhibition at 5 µM (Mean ± SEM %) Cruzain 0′, 5 µM, no pre-incubation, initial screening
[11] = read-out: Inhibition at 5 µM (Mean ± SEM %) Cruzain 10′ inc, 5 µM, 10′ pre-incubation, initial screening
[12] = read-out: Inhibition at 100 µM (Mean ± SEM %) Cruzain 0′, 100 µM, no pre-incubation, solid samples
[13] = read-out: Inhibition at 100 µM (Mean ± SEM %) Cruzain 10′ inc, 100 µM, 10′ pre-incubation, solid samples
[14] = read-out: Inhibition of cruzain or TbrCatL (either enzyme) in the initial screening, 5 µM, either cruzain or TbrCatL, with or without pre-incubation
[15] = IC50 (µM ± SEM %) TbrCatL 0′, no pre-incubation
[16] = IC50 (µM ± SEM %) TbrCatL 10′ inc, 10′ pre-incubation
[17] = read-out: Inhibition at 5 µM (Mean ± SEM %) TbrCatL 0′
[18] = read-out: Inhibition at 5 µM (Mean ± SEM %) TbrCatL 10′ inc
[19] = read-out: Inhibition at 100 µM (Mean ± SEM %) TbrCatL 0′
[20] = read-out: Inhibition at 100 µM (Mean ± SEM %) TbrCatL 10′ inc
[21] = read-out: TbrCatL 0’ Inhibition
[22] = read-out: TbrCatL 10’ Inhibition
[23] = IC50 against cruzain and TbrCatL (summary), cruzain and TbrCatL, with or without pre-incubation

T1 sequence (P25779 123-337 limits assumed): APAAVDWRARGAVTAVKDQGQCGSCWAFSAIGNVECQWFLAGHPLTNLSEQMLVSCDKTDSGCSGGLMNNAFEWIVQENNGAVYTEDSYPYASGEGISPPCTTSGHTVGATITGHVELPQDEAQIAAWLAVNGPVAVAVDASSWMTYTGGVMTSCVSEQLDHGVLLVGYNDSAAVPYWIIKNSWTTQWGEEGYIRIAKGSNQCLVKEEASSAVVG

Row | SMILES | IC50 (cruzain [1]; [6]) | IC50 (cruzain [1]; [7]) | inhibition at 5 µM (cruzain [1]; [8]) | inhibition at 5 µM (cruzain [1]; [9]) | inhibition at 5 µM (cruzain [1]; [10]) | inhibition at 5 µM (cruzain [1]; [11]) | inhibition at 100 µM (cruzain [1]; [12]) | inhibition at 100 µM (cruzain [1]; [13]) | inhibition at 5 µM (cruzain [1]; [14]) | IC50 (TbrCatL; [15]) | IC50 (TbrCatL; [16]) | inhibition at 5 µM (TbrCatL; [17]) | inhibition at 5 µM (TbrCatL; [18]) | inhibition at 100 µM (TbrCatL; [19]) | inhibition at 100 µM (TbrCatL; [20]) | inhibition at 5 µM (TbrCatL; [21]) | inhibition at 5 µM (TbrCatL; [22]) | % Cruzain Inhibition (Mean ± SEM) 0.001% Triton + BSA 1 mg/mL (cruzain [2]) | % Cruzain Inhibition (Mean ± SEM) 0.001% Triton X-100 (cruzain [2]) | % Cruzain Inhibition (Mean ± SEM) 0.1% Triton X-100 (cruzain [2]) | other results
1 | CN1CCN(S(=O)(=O)c2ccc(-c3ccc4c(Nc5ccc6nn[nH]c6c5)ccnc4c3)cc2)CC1 [MMV687246] | 14 ± 5 µM | 10 ± 2 µM | 24% | 39% | 24 ± 3% | 39 ± 3% | 72 ± 1% | 92 ± 3% | ≥ 40% | 9 ± 3 µM | 4.2 ± 0.6 µM | 29 ± 1% | 49 ± 4% | 92 ± 6% | 99 ± 1% | 29% | 49% | 45 ± 1% | 62 ± 3% | 32 ± 2% | Change of IC50 with vs without 10′ pre-incubation (cruzain [1]; against cruzain, 10 min): up to 2 fold; % Cruzain Inhibition (Mean ± SEM) 0.01% Triton X-100 (cruzain [2]): 51 ± 0%; Ki (cruzain [3]): 57 ± 6 µM; Mechanism of inhibition of cruzain (cruzain [3]): mixed inhibitor; also recorded: mixed inhibition; α value (mixed inhibition) (cruzain [3]; mixed model): 0.7 ± 0.2
2 | CN1CCN(CCCOc2ncc(Nc3ncc(-c4ccc(C(F)(F)F)c(F)c4)nc3C(N)=O)cn2)CC1 [MMV687812] | 2.2 ± 0.3 µM | 2.6 ± 0.03 µM | 42% | 27% | 41 ± 2% | 27% | 100% | 95% | ≥ 40% | 3.45 ± 0.05 µM | 3.6 ± 0.3 µM | 11 ± 3% | 5 ± 1% | 90 ± 2% | 93% | 11% | 5.3% | 85 ± 1% | 92 ± 0% | 54 ± 1% | IC50 (cruzain [1]; [23]): 2 to 4 µM; Effect of a 10-fold increase in the concentration of Triton X-100 on cruzain inhibition (cruzain [2]; near the IC50): some reduction in the inhibition; Effect of pre-incubation of the compound with BSA on cruzain inhibition (cruzain [2]; near the IC50): did not reduce the inhibition of cruzain
3 | N=C(N)Nc1ccc(-c2ccc(-c3ccc(NC(=N)N)cc3Cl)o2)c(Cl)c1 [MMV688179] | 0.46 ± 0.03 µM | 0.53 ± 0.03 µM | 102% | 110% | 98 ± 2% | 100% | 100% | 100% | ≥ 60% | 4 ± 1 µM | 5 ± 2 µM | 50 ± 3% | 58 ± 25% | 100% | 100% | 50% | 58% | 89 ± 8% | 85 ± 6% | 82 ± 13% | IC50 against TbrCatL relative to cruzain (TbrCatL; TbrCatL vs cruzain): 10 fold; EC50 (T. cruzi; read-out: EC50 against T. cruzi): 27 µM; Binding to the DNA minor groove (DNA minor groove): known to bind to the DNA minor groove; IC50 (SARS-CoV-2 MPro): 1.6 µM; Inhibition of ferrochelatase (ferrochelatase): lack of MMV688179 inhibition; Inhibition of porphobilinogen deaminase [4]: lack of MMV688179 inhibition; CC50 [5]: 11.6 µM; % Cruzain Inhibition (Mean ± SEM) 0.01% Triton X-100 (cruzain [2]): 80 ± 1%; Colloidal aggregation assessment (cruzain [2]; near the IC50): do not suggest aggregation properties near the IC50; Mechanism of inhibition of cruzain (cruzain [3]): competitive inhibitor; also recorded: competition with the substrate; Ki (cruzain [3]; competitive model, read-out: Ki against cruzain from non-linear regression of the Michaelis-Menten competitive model): 0.165 ± 0.063 µM; Ki (cruzain [3]; linear regression of Kmapp, read-out: Ki against cruzain from the linear regression of Kmapp): 0.206 µM
4 | COc1cc(C2=NCCN2)cc2cc(-c3ccc(C4=NCCN4)cc3)oc12 [MMV688362] | 4.2 ± 0.6 µM | 2.35 ± 0.02 µM | 19% | 27% | 19 ± 1% | 27 ± 3% | 100% | 100% | ≥ 40% | 2.9 ± 0.8 µM | 2.3 ± 0.1 µM | 9 ± 1% | 43 ± 4% | 100% | 100% | 9% | 43% | 29 ± 3% | 59 ± 2% | 25 ± 2% | IC50 (cruzain [1]; [23]): 2 to 4 µM; EC50 (T. cruzi; ref Pathogen Box data, read-out: EC50 against T. cruzi reported on PB): 13 µM; Binding to the DNA minor groove (DNA minor groove): known to bind to the DNA minor groove; % Cruzain Inhibition (Mean ± SEM) 0.01% Triton X-100 (cruzain [2]): 41 ± 2%; Effect of pre-incubation of the compound with BSA on cruzain inhibition (cruzain [2]; near the IC50): some reduction in the inhibition
5 | Cn1ccnc1CNCCS(=O)(=O)c1cccc(Nc2ccc(-c3cccc(F)c3)cn2)c1 [MMV688466] | 9 ± 1 µM | 25 ± 6 µM |  |  | 41 ± 2% | 49 ± 5% | 58 ± 27% | 98 ± 1% | ≥ 40% | 4 ± 1 µM | 11 ± 4 µM | 29 ± 2% | 54 ± 8% | 96 ± 3% | 100% |  |  | 96 ± 3% | 83 ± 3% | 82 ± 11% | % Cruzain Inhibition (Mean ± SEM) 0.01% Triton X-100 (cruzain [2]): 32 ± 5%
6 | COc1ccc(C2=NN(C3CCCCCC3)C(=O)C2(C)C)cc1OCCCCOc1ccc(-c2nn[nH]n2)cc1 [MMV690028] | 10 ± 3 µM | 13 ± 5 µM |  |  | 34 ± 8% | 27 ± 4% | 100% | 100% | ≥ 40% | 18 ± 7 µM | 27 ± 3 µM | 49 ± 4% | 23 ± 4% | 100% | 88 ± 3% |  |  | 91 ± 7% | 69 ± 14% |  | 
